Key:
[1] = Risdiplam solubility in tartaric acid solution with sodium croscarmellose or crospovidone (UPLC); format: physicochemical; conditions: 0.6 mg/ml tartaric acid in tap water, pH 4.1, stirred 30 minutes, room temperature
Protocol: 60 mg of Tartaric Acid were dissolved in 100 ml tap water (0.6 mg/ml) at room temperature and protected from light. A representative amount of Sodium Croscarmellose or Crospovidone was added and dispersed. After that, 100 mg of risdiplam were added, the suspension stirred for 30 minutes und the concentration analyzed by UPLC (see Table 11).

[2] = air of a workplace; classified by regulatory authorities at EU and national levels; cited from earlier work
[3] = Impact of sucralose on risdiplam stability; format: physicochemical; conditions: 25 mg risdiplam and 475 mg Sucralose, 15 days at 70° C./75% Relative Humidity
Protocol: FIG. 3: Discoloration and decomposition of risdiplam in the presence of Sucralose, a) Risdiplam+Sucralose at time 0, b) risdiplam+Sucralose (70° C./75% Relative Humidity) after 15 days, c) sucralose without Risdiplam (70° C./75% Relative Humidity) after 15 days.
The impact of Sucralose on Risdiplam stability was evaluated. Vial (a) contained […] and is shown at time 0; vial (b) is 25 mg risdiplam and 475 mg Sucralose after 15 days at 70° C./75% Relative Humidity; and vial (c) is Sucralose without Risdiplam after 15 days at 70° C./75% Relative Humidity.

Concentration (Nominal 1 mg/ml) ([1]; with Crospovidone (75 mg)): 970 µg/mL | Concentration (Nominal 1 mg/ml) ([1]; with Sodium Croscarmellose (75 mg)): 280 µg/mL
Compound: Cc1cn2nc(-c3cc(=O)n4cc(N5CCNC6(CC6)C5)ccc4n3)cc(C)c2n1 [Risdiplam, 7-(4,7-diazaspiro[2.5]octan-7-yl)-2-(2,8-dimethylimidazo[1,2-b]pyridazin-6-yl)pyrido[1,2-a]pyrimidin-4-one]
IOEL (occupational exposure limit) [2]: 1.0-10 microgram/m3 | Stability of risdiplam in presence of Sucralose [3]: cause discoloration and promote the decomposition of risdiplam

From patent US20250144031A1, “COMPOSITION FOR TREATING SPINAL MUSCULAR ATROPHY” (Hoffmann-La Roche Inc., priority 2023, published 2025)
